According to US11066369B2, “N-(pyridin-2-yl)pyridine-sulfonamide derivatives and their use in the treatment of disease” (Novartis AG, priority 2016, dated 2021):
Counter-ions that a name gives are not always drawn.

Assays:
[1] = target: T1, horseradish peroxidase (HRP) tagged delF508-CFTR (Homo sapiens, UniProt P13569, DEL508-508); assay: Measurement of delF508-CFTR-HRP surface expression in CFBE41o- cells; type: cell-based; details: delF508-CFTR-HRP surface expression, CFBE41o- cells; for Emax: read-out: DelF508-CFTR-HRP Amax %; for EC50: read-out: DelF508-CFTR-HRP EC50;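 on DelF508-CFTR-HRP Amax %: percent efficacy relative to reference corrector lumacaftor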
T1 construct: expressed in transfected cells
T1 sequence (P13569 with tags, fused parts or gaps DEL508-508): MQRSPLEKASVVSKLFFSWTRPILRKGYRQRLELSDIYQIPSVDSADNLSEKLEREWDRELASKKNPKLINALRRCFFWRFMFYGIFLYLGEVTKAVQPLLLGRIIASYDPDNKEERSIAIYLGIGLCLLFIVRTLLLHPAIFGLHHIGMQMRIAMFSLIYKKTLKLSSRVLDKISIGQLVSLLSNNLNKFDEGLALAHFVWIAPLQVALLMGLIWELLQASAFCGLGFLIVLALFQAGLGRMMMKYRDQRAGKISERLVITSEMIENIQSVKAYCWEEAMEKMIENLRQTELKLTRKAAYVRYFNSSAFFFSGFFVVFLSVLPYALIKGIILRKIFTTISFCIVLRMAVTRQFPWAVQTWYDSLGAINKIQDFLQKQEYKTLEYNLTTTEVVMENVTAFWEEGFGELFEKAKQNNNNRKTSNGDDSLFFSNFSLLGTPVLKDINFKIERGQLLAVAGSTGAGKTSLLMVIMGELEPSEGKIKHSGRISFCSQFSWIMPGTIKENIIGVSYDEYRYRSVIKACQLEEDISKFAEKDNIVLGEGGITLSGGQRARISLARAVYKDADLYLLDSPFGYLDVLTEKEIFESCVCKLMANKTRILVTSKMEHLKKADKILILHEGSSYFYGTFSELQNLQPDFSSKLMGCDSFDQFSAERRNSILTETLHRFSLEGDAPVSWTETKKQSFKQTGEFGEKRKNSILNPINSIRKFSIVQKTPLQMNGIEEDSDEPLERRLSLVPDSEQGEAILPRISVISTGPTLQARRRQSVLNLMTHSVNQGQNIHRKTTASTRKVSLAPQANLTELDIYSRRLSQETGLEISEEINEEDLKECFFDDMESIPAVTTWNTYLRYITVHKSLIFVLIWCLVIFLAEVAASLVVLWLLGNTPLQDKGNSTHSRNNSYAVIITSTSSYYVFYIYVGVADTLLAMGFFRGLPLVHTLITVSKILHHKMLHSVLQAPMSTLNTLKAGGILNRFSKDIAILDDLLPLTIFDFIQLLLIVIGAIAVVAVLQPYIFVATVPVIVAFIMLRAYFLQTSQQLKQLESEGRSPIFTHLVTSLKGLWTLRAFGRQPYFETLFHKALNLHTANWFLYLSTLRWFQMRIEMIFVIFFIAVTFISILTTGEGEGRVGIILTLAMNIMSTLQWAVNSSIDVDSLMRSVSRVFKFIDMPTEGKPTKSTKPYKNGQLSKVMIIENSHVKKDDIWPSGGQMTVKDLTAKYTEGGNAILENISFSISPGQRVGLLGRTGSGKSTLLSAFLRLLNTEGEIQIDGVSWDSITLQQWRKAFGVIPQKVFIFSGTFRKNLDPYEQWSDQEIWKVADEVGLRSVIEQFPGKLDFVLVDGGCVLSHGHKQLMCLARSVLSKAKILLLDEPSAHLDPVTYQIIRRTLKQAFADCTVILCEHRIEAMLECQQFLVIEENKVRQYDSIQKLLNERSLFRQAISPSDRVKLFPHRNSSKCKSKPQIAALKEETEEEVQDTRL
In short: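 Surface-trafficked delF508-CFTR detected via extracellular HRP tag, read as luminescence from a membrane-impermeant substrate in CFBE41o- cells. Cells pre-induced 48h with 500 ng/mL doxycycline, then exposed 24h at 37° C to a 10-point, 3-fold dilution series from 10 μM (DMSO ≤0.5%). Triplicate dose-responses fitted logistically for EC50 after per-plate normalization; fold change versus reference compound.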

delF508-CFTR = target: T2, delF508-CFTR (Homo sapiens, UniProt P13569, DEL508-508); assay: Measurement of delF508-CFTR functional activity in primary human bronchial epithelial cells (HBECs) using Multi-Transepithelial Clamp Circuit (MTECC-24) assay; type: cell-based; details: primary CF HBECs; for MTECC24 CFHBEC- Amax %: test compound added 24h before assay plus potentiator, relative to reference combination (2 μM corrector + 0.5 μM potentiator); for EC50: test compound added 24h before assay, in the presence of potentiator, mean of at least two replicates, read-out: MTECC24 CFHBEC- EC50
T2 construct: functional activity of the CFTR channel (Chloride ion transport) in patient derived primary human bronchial epithelial cells; host or cells: patient-derived primary human bronchial epithelial cells (delF508-CFTR)
T2 sequence (P13569 with tags, fused parts or gaps DEL508-508): as above
In short: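 Compound tested as 10-point, 1-in-3 concentration response (0.1% or 0.2% DMSO), 24 h basolateral pre-incubation, then re-added to both sides. MTECC-24 measured Ieq in ALI-differentiated primary delF508 bronchial cells after amiloride, forskolin activation, potentiator and INH-172 block; data normalized to DMSO baseline, EC50 fitted.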

Row | Compound | Emax [1] [%] | EC50 [1] [µM] | MTECC24 CFHBEC- Amax % (delF508-CFTR) [%] | EC50 (delF508-CFTR) [µM]
1 | Cc1ccc(F)cc1-c1nc(NS(=O)(=O)c2cccc(N[C@@H]3[C@H](CO)[C@H]4CC[C@@H]3O4)n2)ccc1Cl [Example 128, N-(5-chloro-6-(5-fluoro-2-methylphenyl)pyridin-2-yl)-6-(((1S,2R,3R,4R)-3-(hydroxymethyl)-7-oxabicyclo[2.2.1]heptan-2-yl)amino)pyridine-2-sulfonamide] | 730 | 2.24 | 61.9 | 0.0053
2 | Cc1ccccc1-c1nc(NS(=O)(=O)c2cccc(N3CCNC[C@H]3C)n2)ccc1C(F)(F)F [Example 171, (R)-6-(2-methylpiperazin-1-yl)-N-(6-(o-tolyl)-5-(trifluoromethyl)pyridin-2-yl)pyridine-2-sulfonamide Hydrochloride] | 505 | 2.73 | 66.2 | 0.118
3 | CCOC(=O)C1(C)CCN(c2cccc(S(=O)(=O)Nc3ccc(C(F)(F)F)c(-c4cc(F)ccc4C)n3)n2)CC1 [Example 251, ethyl 1-(6-(N-(6-(5-fluoro-2-methylphenyl)-5-(trifluoromethyl)pyridin-2-yl)sulfamoyl)pyridin-2-yl)-4-methylpiperidine-4-carboxylate] | 894 | 1.45 | 61.2 | 0.0032
4 | Cc1ccc(F)cc1-c1nc(NS(=O)(=O)c2ccnc(N3CC(O)C3)c2)ccc1C(F)(F)F [Example 324, N-(6-(5-fluoro-2-methylphenyl)-5-(trifluoromethyl)pyridin-2-yl)-2-(3-hydroxyazetidin-1-yl)pyridine-4-sulfonamide] | 402 | 2.64 | 49.4 | 0.0479
5 | Cc1ccccc1-c1nc(NS(=O)(=O)c2cccc(N3CCN[C@@H](CO)C3)n2)ccc1C(F)(F)F [Example 165, (R)-6-(3-(hydroxymethyl)piperazin-1-yl)-N-(6-(o-tolyl)-5-(trifluoromethyl)pyridin-2-yl)pyridine-2-sulfonamide hydrochloride] | 401 | 2.9 | 50.8 | 0.342
6 | Cc1cccc(C)c1-c1cc(C(F)(F)F)cc(NS(=O)(=O)c2cccc(N3CCNCC3)n2)n1 [Example 133, N-(6-(2,6-dimethylphenyl)-4-(trifluoromethyl)pyridin-2-yl)-6-(piperazin-1-yl)pyridine-2-sulfonamide Hydrochloride] | 570 | 2.03 | 71.2 | 0.0979
7 | Cc1cccc(C)c1-c1nc(NS(=O)(=O)c2cccc(N)n2)ccc1Cl [Example 11, 6-amino-N-(5-chloro-6-(2,6-dimethylphenyl)pyridin-2-yl)pyridine-2-sulfonamide] | 579 | 1.35 | 94.3 | 0.0136
8 | Cc1ccc(C#N)cc1-c1nc(NS(=O)(=O)c2cccc(N3CCNCC3)n2)ccc1C(F)(F)F [Example 311, N-(6-(5-cyano-2-methylphenyl)-5-(trifluoromethyl)pyridin-2-yl)-6-(piperazin-1-yl)pyridine-2-sulfonamide] | 179 | 3.27 | 61.7 | 0.22
9 | Cc1ccccc1-c1nc(NS(=O)(=O)c2cccc(N3CCC(C)(C(=O)O)CC3)n2)ccc1Cl [Example 255, 1-(6-(N-(5-chloro-6-(o-tolyl)pyridin-2-yl)sulfamoyl)pyridin-2-yl)-4-methylpiperidine-4-carboxylic Acid] | 222 | 3.16 | 55.1 | 0.0104
10 | Cc1ccccc1-c1nc(NS(=O)(=O)c2cccc(N3CCN(CC(F)(F)F)CC3)n2)ccc1C(F)(F)F [Example 186, N-(6-(o-tolyl)-5-(trifluoromethyl)pyridin-2-yl)-6-(4-(2,2,2-trifluoroethyl)piperazin-1-yl)pyridine-2-sulfonamide] | – | 1.19 | 81.5 | 0.0026
11 | Cc1ccc(F)cc1-c1nc(NS(=O)(=O)c2cccc(N3CCN(C)CC3)n2)ccc1C(F)(F)F [Example 179, N-(6-(5-fluoro-2-methylphenyl)-5-(trifluoromethyl)pyridin-2-yl)-6-(4-methylpiperazin-1-yl)pyridine-2-sulfonamide] | – | 2.08 | 91.9 | 0.0316
12 | Cc1cccc(C)c1-c1nc(NS(=O)(=O)c2cccc(N3CCNCC3)n2)ccc1Cl [Example 163, N-(5-chloro-6-(2,6-dimethylphenyl)pyridin-2-yl)-6-(piperazin-1-yl)pyridine-2-sulfonamide Hydrochloride] | 305 | 3.14 | 64.8 | 0.059
13 | CC1(C(=O)O)CCN(c2cccc(S(=O)(=O)Nc3ccc(C(F)(F)F)c(-c4ccccc4C4CC4)n3)n2)CC1 [Example 237, 1-(6-(N-(6-(2-cyclopropylphenyl)-5-(trifluoromethyl)pyridin-2-yl)sulfamoyl)pyridin-2-yl)-4-methylpiperidine-4-carboxylic Acid] | 544 | 1.46 | 55.4 | 0.0043
14 | Cc1ccccc1-c1nc(NS(=O)(=O)c2cccc(N[C@H]3C[C@H](O)C3)n2)ccc1C(F)(F)F [Example 284, N-[6-(2-methylphenyl)-5-(trifluoromethyl)pyridin-2-yl]-6-{[(1r,3r)-3-hydroxycyclobutyl]amino}pyridine-2-sulfonamide] | 493 | 2.28 | 85.2 | 0.0009
15 | Cc1c(C#N)cccc1-c1nc(NS(=O)(=O)c2cccc(N)n2)ccc1Cl [Example 67, 6-amino-N-(5-chloro-6-(3-cyano-2-methylphenyl)pyridin-2-yl)pyridine-2-sulfonamide] | 214 | 1.84 | 45.8 | 0.114
16 | CO[C@@H]1CNCC[C@H]1Nc1cccc(S(=O)(=O)Nc2ccc(C(F)(F)F)c(-c3ccccc3C)n2)n1 (racemic) [Example 116, 6-(((3R,4R)-3-methoxypiperidin-4-yl)amino)-N-(6-(o-tolyl)-5-(trifluoromethyl)pyridin-2-yl)pyridine-2-sulfonamide Hydrochloride] | 370 | 3.16 | 60.8 | 0.107
17 | Cc1ccccc1-c1nc(NS(=O)(=O)c2cccc(N3CC4C(N)C4C3)n2)ccc1C(F)(F)F (centres unmarked) [Example 107, 6-(6-amino-3-azabicyclo[3.1.0]hexan-3-yl)-N-(6-(o-tolyl)-5-(trifluoromethyl)pyridin-2-yl)pyridine-2-sulfonamide Hydrochloride] | 756 | 1.99 | 72.2 | 0.111
18 | Cc1ccccc1-c1nc(NS(=O)(=O)c2cccc(NC3CCNCC3)n2)ccc1C(F)(F)F [Example 112, 6-(piperidin-4-ylamino)-N-(6-(o-tolyl)-5-(trifluoromethyl)pyridin-2-yl)pyridine-2-sulfonamide Hydrochloride] | 172 | 4.05 | 55.0 | 0.495
19 | Cc1ccccc1-c1nc(NS(=O)(=O)c2cccc(O[C@@H]3COC[C@@H]3O)n2)ccc1C(F)(F)F (single isomer, unassigned) [Example 296] | 255 | 3.22 | 54.3 | 0.03
